Test results: PubChem BioAssay (NCI)
Values joined by “and” are separate entries in the source; they are usually repeats but may differ in a detail not shown here. Equal entries are not always repeated.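 Growth conditions: 96-well plates. Treatment: test compound, 48 hours, 5 concentrations. Analysis: linear interpolation between bracketing concentrations; unreached endpoints set to highest concentration. GI50 marks 50% less growth. Definition used: TGI = concentration required for complete inhibition of growth.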

Columns and labels:
Experiment in all cases: DTP human tumour cell line panel, 48 h
786-0 renal = system: 786-0 renal
SK-OV-3 ovarian = system: SK-OV-3 ovarian
MALME-3M melanoma = system: MALME-3M melanoma
HT29 colon = system: HT29 colon
PC-3 prostate = system: PC-3 prostate
TK-10 renal = system: TK-10 renal
RPMI-8226 leukemia = system: RPMI-8226 leukemia
KM12 colon = system: KM12 colon
LOX IMVI melanoma = system: LOX IMVI melanoma
NCI/ADR-RES ovarian = system: NCI/ADR-RES ovarian

Compound | GI50 (786-0 renal) | TGI (786-0 renal) | GI50 (SK-OV-3 ovarian) | TGI (SK-OV-3 ovarian) | GI50 (MALME-3M melanoma) | TGI (MALME-3M melanoma) | GI50 (HT29 colon) | TGI (HT29 colon) | GI50 (PC-3 prostate) | TGI (PC-3 prostate) | GI50 (TK-10 renal) | TGI (TK-10 renal) | GI50 (RPMI-8226 leukemia) | TGI (RPMI-8226 leukemia) | GI50 (KM12 colon) | TGI (KM12 colon) | GI50 (LOX IMVI melanoma) | TGI (LOX IMVI melanoma) | GI50 (NCI/ADR-RES ovarian) | TGI (NCI/ADR-RES ovarian)
C=C(F)C(=O)N1CCN(c2nc(OC[C@@H]3CCCN3C)nc3c2CCN(c2cccc4cccc(Cl)c24)C3)C[C@@H]1CC#N | 0.769 µM | 2.09 µM | 2.17 µM | 4.94 µM | 1.47 µM | 2.98 µM | 0.699 µM | 2.42 µM | 0.855 µM | 2.44 µM | 1.1 µM | 2.67 µM | 1.24 µM | 3.45 µM | 1.2 µM | 2.56 µM | 1.13 µM | 2.47 µM | 0.601 µM | 3.19 µM
CC(=O)OC1Oc2ccccc2-c2oc(=O)c(-c3cc(=O)oc4cc(O)ccc34)cc21 (stereo unspecified) | 16.2 µM | 38.4 µM | 26.7 µM | 87.6 µM | 20.9 µM | 59.2 µM | 26.4 µM | > 100 µM | 16.2 µM | 55.6 µM | 32.6 µM | > 100 µM | 13.1 µM | 44.1 µM | 19.8 µM | 46.4 µM | 17.8 µM | 37.5 µM | 18.1 µM | 44.6 µM
Cn1cc(C2=C(c3ccc4ccccc4c3)C(=O)NC2=O)c2ccccc21 | > 25 µM | > 25 µM | > 25 µM | > 25 µM | > 22.1 µM | > 25 µM | 9.87 µM | > 25 µM | > 25 µM | > 25 µM | > 25 µM | > 25 µM | > 23.8 µM | > 25 µM | 12.5 µM | > 25 µM | > 25 µM | > 25 µM | > 23.9 µM | > 25 µM
CNCCNc1c2c(c(NCCNC)c3c(CN(C)C)c[nH]c13)C(=O)c1ccccc1C2=O | 4.87 µM | 19.5 µM | 17.1 µM | 50.8 µM | 6.73 µM | 15.5 µM | 3.41 µM | 31.6 µM | 0.969 µM | 5.64 µM | 7.11 µM | 15.9 µM | 0.938 µM | 5.2 µM | 2.8 µM | 9.5 µM | 2.35 µM | 6.04 µM | 12.7 µM | 40.2 µM
O=Cc1cc2c(cc1-c1c(C=O)ccc3c1OCO3)OCO2 |  | > 10 µM |  | > 10 µM |  | > 10 µM |  | > 10 µM |  | > 10 µM |  | > 10 µM |  | > 10 µM |  | > 10 µM |  | > 10 µM |  | > 10 µM
Cc1ccc(Cl)cc1Nc1nc(C(F)(F)F)ccc1C(=O)N1CCN(c2ccc(F)cc2)CC1 | 14.7 µM | 29.4 µM | 15.6 µM | 36.1 µM | 11.1 µM | 23.4 µM | 10.7 µM | 23.9 µM | 10.2 µM | 33.3 µM | 11.2 µM | 26.4 µM | 15.5 µM | 52.6 µM | 11.3 µM | 23.4 µM | 11.9 µM | 24.6 µM | 13.3 µM | 36.7 µM
O=c1n(CC2CO2)c(=O)n(CC2CO2)c(=O)n1CC1CO1 (stereo unspecified) | 8.38 µM and 4.15 µM | 24.2 µM and 84.8 µM and > 100 µM | 6.86 µM | 123 µM and > 100 µM | 17.1 µM and 43.2 µM | 44.3 µM and 70.2 µM and > 100 µM | 24.4 µM | 62.3 µM and > 100 µM | 20.3 µM | 75.4 µM and 92.2 µM and > 100 µM | 21.1 µM | 121 µM and > 100 µM | 28.4 µM and 17.6 µM | 399 µM and > 100 µM | 21.3 µM | 112 µM and > 100 µM | 12.3 µM and 6.12 µM | 47.5 µM and 102 µM and > 100 µM | 16.3 µM and 11.7 µM | 237 µM and > 100 µM
CCN1CCN(c2ccc(Nc3cc(N(C)C(=O)Nc4c(Cl)c(OC)cc(OC)c4Cl)ncn3)cc2)CC1 | 1.88 µM | 4.27 µM | 8.02 µM | 20.8 µM | 1.82 µM | 3.5 µM | 1.55 µM | 3.69 µM | 3.52 µM | 19.2 µM | 2.5 µM | 12.5 µM | 1.76 µM | 4.71 µM | 4.47 µM | 18.7 µM | 1.48 µM | 2.91 µM | 3.7 µM | > 64.5 µM
CC[C@]12C=CCN3CC[C@@]4(c5ccc(OC)cc5N(C)[C@H]4[C@@](O)(C(=O)OC)[C@@H]1OC(=O)CCC[P+](c1ccccc1)(c1ccccc1)c1ccccc1)[C@@H]32 | 2.13 µM | 8.03 µM | 0.894 µM and 0.439 µM | 3.8 µM and 2.46 µM | 0.338 µM and 0.493 µM | 1.37 µM and 1.78 µM | 0.334 µM and 0.403 µM | 4.91 µM and 2.78 µM | 0.224 µM and 0.345 µM | 5.13 µM and 2.59 µM | 1.59 µM and 1.28 µM | 6.46 µM and 3.3 µM | 0.118 µM and 0.164 µM | 1.29 µM and 0.597 µM | 0.274 µM and 0.527 µM | 1.06 µM and 1.8 µM | 0.923 µM and 0.662 µM | 6 µM and 2.18 µM | > 50 µM and 68.9 µM | > 100 µM
Cc1c2cccnc2c(C)c2c1c1cc(CO)ccc1n2C | 2.17 µM | 12.7 µM | 2.14 µM | 6.95 µM | 1.93 µM | 7.82 µM | 1.92 µM | 10.6 µM | 2.67 µM | 33 µM | 2.57 µM | 7.77 µM | 2.09 µM | 7.3 µM | 2.33 µM | 17 µM | 1.5 µM | 4.82 µM | 1.3 µM | 8.51 µM
COc1cc(Nc2cn[nH]c2-c2ccc(Cl)cc2)cc(OC)c1OC | 6.8 µM | 36.2 µM | 4.92 µM | 36.6 µM | 4.51 µM | 45.8 µM | 3.24 µM | 14.3 µM | 8.18 µM | > 64 µM | 9.13 µM | 62.9 µM | 2.48 µM | 12.3 µM | 2.83 µM | 16.4 µM | 5.62 µM | 20.7 µM | 4.42 µM | > 36.8 µM
COCCOc1cc(F)c2c(Nc3ccc(NC(=O)Cn4cc(C(C)C)nn4)cc3)ncnc2c1 | 39.1 µM | > 100 µM |  |  | 79.6 µM | > 100 µM | > 100 µM | > 100 µM | > 100 µM | > 100 µM | > 100 µM | > 100 µM | > 100 µM | > 100 µM | 1.16 µM | > 100 µM | > 100 µM | > 100 µM | > 100 µM | > 100 µM
NC(=NCCCOc1ccc(Cl)cc1)Nc1ccc(C(F)(F)F)cc1 | 1.65 µM | 4.32 µM | 4.68 µM | 18.1 µM | 1.93 µM | 4.01 µM | 1.88 µM | 5.55 µM | 1.67 µM | 5.25 µM | 1.73 µM | 3.66 µM | 1.75 µM | 4.32 µM |  |  | 1.46 µM | 2.77 µM | 2.35 µM | 7.27 µM
